These are literature values, as cited in PMC9653339, “Revisiting the anticancer properties of phosphane(9-ribosylpurine-6-thiolato)gold(I) complexes and their 9H-purine precursors” (Journal of Biological Inorganic Chemistry, 2022).

For orientation: IC50 means the concentration needed to halve the response being measured.

The subject of data set [1] is HCT-116^wt colon carcinoma cells. Set-up: method as in Bär et al. [33]. The settings on record: MTT, value marked * ref Bär et al. [33]; cited from earlier work.
The subject of data set [2] is human adult dermal fibroblasts HDFa. Set-up: method as in Bär et al. [33]. The settings on record: MTT, value marked * ref Bär et al. [33]; cited from earlier work.

As for `CC(=O)OC[C@H]1O[C@@H]([S-])[C@H](OC(C)=O)[C@@H](OC(C)=O)[C@@H]1OC(C)=O.CCP(CC)CC.[Au+]` [Auranofin, auranofin], the IC50 in data set [1] is 11.9 ± 0.4 µM; in data set [2], 14 ± 1 µM.
